± gives the expanded uncertainty stated by the source.
Details: Liquid, Closed cell (Static) method

| Compound | vapor or sublimation pressure (258.15 K) | vapor or sublimation pressure (263.15 K) | vapor or sublimation pressure (273.15 K) | vapor or sublimation pressure (283.15 K) |
| --- | --- | --- | --- | --- |
| CCC [propane] | 291.6 ± 1.1 kPa | 345.3 ± 1.1 kPa | 474.5 ± 1.2 kPa | 636.8 ± 1.4 kPa |
| FC(F)(F)I [trifluoroiodomethane] | 133 ± 1 kPa | 160.4 ± 1 kPa | 228.4 ± 1.1 kPa | 316.5 ± 1.1 kPa |

Reference: the NIST ThermoML archive (doi:10.1016/j.jct.2014.07.013)
